Values after ≈ are worked out from the molar mass of the structure shown. Read-outs that look alike come from different tables or passages of the source.
Columns and labels:
[1] = system: bacterial aggregation of MRSA JE-2; experiment: Aggregation assay of MRSA JE-2; assay type: cell-based, Staphylococcus aureus; details: kuraridin at 4 μg/ml
[2] = system: internalization of MRSA strain JE-2 by HaCat keratinocytes; experiment: Internalization of S. aureus by HaCaT keratinocytes; assay type: cell-based, Staphylococcus aureus
physchem = details: aqueous with cosolvent or surfactant or cyclodextrin
[3] = system: S. aureus SA-APH3′ (APH3), resistant to kanamycin; experiment: MIC and checkerboard (FIC) assay
[4] = system: Human Umbilical Vein Endothelial Cells (HUVEC); experiment: XTT cytotoxicity testing; details: 2-64 μg/ml, vs drug free control
[5] = system: Panton-Valentine leukocidin positive CA-MRSA strain ST30; assay type: in vivo, Balb/c mice; details: ST30
MRSA SA-ST239 = experiment: MIC and checkerboard (FIC) assay; details: Staphylococcus aureus, MRSA
[6] = system: S. aureus SA-APH2″-AAC6′ (APH2), resistant to gentamicin; experiment: MIC and checkerboard (FIC) assay
[7] = system: S. aureus SA-RN4220-pUL5054 (RN4220); experiment: MIC and checkerboard (FIC) assay
[8] = system: human peripheral blood mononuclear cells (PBMC); experiment: XTT cytotoxicity testing; assay type: cell-based; details: 2-64 μg/ml, vs drug free control
Procedure: (§1) The plates were maintained in a 37° C. incubator.
The cytotoxicity of kuraridin and its analogues were determined by the sodium 3′-[1-(phenylaminocarbonyl)-3,4-tetrazolium]-bis (4-methoxy-6-nitro) benzene sulfonic acid hydrate (XTT) assay.
Serial dilutions of the compounds ranging 2-64 μg/ml were incubated with PBMCs at 37° C. for 72 hrs.

[9] = system: panel of laboratory MRSA strains; experiment: MIC and combination tests, panel of laboratory strains
clinical MRSA ST239 = experiment: Mouse pneumonia model, ST239 (neutropenic mice); assay type: in vivo, Balb/c mice; details: ST239; 48 h; 1 also died in control
[10] = system: S. aureus ATCC25923 (methicillin sensitive); experiment: MIC and checkerboard (FIC) assay; details: Staphylococcus aureus
[11] = system: clinical community-associated (CA) and hospital-associated (HA) MRSA strains; experiment: MIC and combination tests, panel of clinical strains; details: range over clinical CA and HA MRSA strains (Table 3)
[12] = system: S. aureus SA-1199B (NorA efflux pump overexpressed); experiment: MIC and checkerboard (FIC) assay
[13] = system: adherence of MRSA strain JE-2 to fibrinogen; experiment: Fibrinogen-binding adherence assay (crystal violet); assay type: cell-based, Staphylococcus aureus; details: kuraridin at 1.0 μg/ml
[14] = system: cytokines production of human macrophages stimulated with PGN or SEB; assay type: cell-based
[15] = system: S. aureus SA-ANT4′ (ANT4), resistant to fusidic acid; experiment: MIC and checkerboard (FIC) assay
panel of MRSA strains = details: previous study (12); cited from earlier work
[16] = system: Human Mammary Epithelial Cell (HMEC); experiment: XTT cytotoxicity testing; assay type: cell-based; details: 2-64 μg/ml, vs drug free control
Procedure: as §1

[17] = system: adherence of MRSA strain JE-2 to HaCat keratinocytes; experiment: Bacterial adherence to HaCaT keratinocytes; assay type: cell-based, Staphylococcus aureus
[18] = system: cytokines production of human PBMC stimulated with PGN or SEB; assay type: cell-based
[19] = Staphylococcus aureus, read-out: MIC 99.9
[20] = Staphylococcus aureus, read-out: MIC alone

C=C(C)C(CC=C(C)C)Cc1c(O)cc(OC)c(C(=O)/C=C/c2ccc(O)cc2O)c1O (stereo not shown) [Kuraridin]
aggregation lower than the mutant ΔSrtA [1]: 3.7 folds | reduction in bacterial aggregation as compared to the wild type without drug [1]: 4.4 fold | percentage of internalized bacteria by HaCaT cells ([2]; kuraridin 0.25 μg/ml): 23.8±4.6% | percentage of internalized bacteria by HaCaT cells ([2]; kuraridin 0.5 μg/ml): 15.8±2.0% | solubility (physchem): 20 mg/mL (≈ 45.6 mM) | FIC ([3]; APH3, Kuraridin with ECG): 0.25 | MIC combine ([3]; APH3, Kuraridin with ECG): 2 µg/mL | MIC90 ([3]; Staphylococcus aureus): 8 µg/mL | MIC99 [3, 19]: 8 µg/mL | MIC [3, 20]: 8 µg/mL | Cellular toxicity (XTT assay) [4]: not toxic | log CFU counts (left lung) ([5]; kuraridin 120 mg/kg, ECG 120 mg/kg, 48 h, control 9.24±0.15): 8.25±0.39 log CFU | survival rates ([5]; kuraridin 120 mg/kg, ECG 120 mg/kg, control 30%): 50% | log CFU counts and survival rates ([5]; used alone at 60 and 120 mg/kg): could not reduce the log CFU counts or improve the survival rates | MIC90 (MRSA SA-ST239): 8 µg/mL | MIC99 (MRSA SA-ST239; read-out: MIC 99.9): 8 µg/mL | FIC ([6]; APH2, Kuraridin with ECG): 0.25 | MIC combine ([6]; APH2, Kuraridin with ECG): 2 µg/mL | MIC90 ([6]; Staphylococcus aureus): 8 µg/mL | MIC99 [6, 19]: 8 µg/mL | MIC [6, 20]: 8 µg/mL | FIC ([7]; RN4220, Kuraridin with ECG): 0.25 | MIC combine ([7]; RN4220, Kuraridin with ECG): 2 µg/mL | MIC90 ([7]; Staphylococcus aureus): 8 µg/mL | MIC ([7]; Staphylococcus aureus, read-out: Activity (MIC, μg/ml)): 8 µg/mL | MIC99 [7, 19]: 8 µg/mL | MIC [7, 20]: 8 µg/mL | Cellular toxicity (XTT assay) [8]: not toxic | MIC99 ([9]; Staphylococcus aureus, MRSA): 8 to 16 µg/mL | MICs in kuraridin and ECG combined treatment ([9]; range over laboratory strains (Table 2)): 2 to 4 µg/mL | mice died (clinical MRSA ST239): 1 mouse | MIC90 ([10]; ATCC25923): 8 µg/mL | MIC99 ([10]; ATCC25923, read-out: MIC 99.9): 8 µg/mL | MICs in kuraridin and ECG combined treatment [11]: 1 to 4 µg/mL | FIC ([12]; 1199B, Kuraridin with ECG): 0.25 | MIC combine ([12]; 1199B, Kuraridin with ECG): 4 µg/mL | MIC90 ([12]; Staphylococcus aureus): 16 µg/mL | MIC99 [12, 19]: 16 µg/mL | MIC ([12]; Staphylococcus aureus, read-out: MIC alone, 1199B, Kuraridin and ECG section): 16 µg/mL | reduction in the adherence of the WT strain to fibrinogen [13]: 100% | IFN-γ productions [14]: could suppress | IL-6 and IL-12 production [14]: dose-dependently inhibited | TNF-α production [14]: suppressed | FIC ([15]; ANT4, Kuraridin with ECG): 0.25 | MIC combine ([15]; ANT4, Kuraridin with ECG): 2 µg/mL | MIC90 ([15]; Staphylococcus aureus): 4 µg/mL | MIC99 [15, 19]: 8 µg/mL | MIC [15, 20]: 8 µg/mL | minimum inhibitory concentration (MIC) (panel of MRSA strains): around 8 μg/ml | Cellular toxicity (XTT assay) [16]: not toxic | adherence of WT strain to HaCaT cells ([17]; 2 μg/ml kuraridin (0.25×MIC)): abolished | percentage of adherence of the bacteria ([17]; kuraridin 0.25 μg/ml): 28.4±3.2% | percentage of adherence of the bacteria ([17]; kuraridin 0.5 μg/ml): 17.8±11.1% | percentage of adherence of the bacteria ([17]; kuraridin 1 μg/ml): 7.6±3.7% | IL-10 and IL-12 production [18]: dose-dependently inhibited
